Source: US4202891A, “15-Oxygenated sterol compounds and the use of such compounds to inhibit the biosynthesis of sterols” (priority 1977, dated 1980)
pIC50: −log10 of the molar value.

Columns and labels:
[1] = Food consumption of rats, sterol in diet; assay type: in vivo, rat (male, Sprague-Dawley)
From the text: (§1) Male rats of the Sprague-Dawley strain were purchased from Sprague-Dawley Farms (Madison, Wisconsin). The rats were maintained on a light (7:00 A.M.-5:30 P.M.)--dark (5:30 P.M.-7:00 A.M.) cycle and fed a Cholesterol Free Test Diet (United States Biochemical Corporation, Cleveland, Ohio) for a period of 13 days prior to the initiation of the experimental period. Six days prior to the initiation of the experimental period blood samples were taken for assay of serum cholesterol concentration and, based upon the results of these analyses, rats were divided into 3 groups with approximately the same mean serum cholesterol concentration. The rats were then individually housed in metabolic cages (Econo-Metabolism Units, Maryland Plastics, New York, New York) for 6 days prior to the initiation of the experimental period. The animals were maintained on the light-dark cycle throughout the experimental period.
The individual animals were weighed daily throughout the experimental period. Food consumption by the individual rats was similarly recorded daily. No significant spillage of the food or contamination of the food by feces or urine was possible due to the nature of the matabolic cage and the food receptacles utilized.
(§2) 5α-Cholest-8(14)-en-3β-ol-15-one (500 mg), prepared and purified as described in Example 1, was added in small portions to 500 g of the Cholesterol Free Test Diet in a 2 liter glass stoppered bottle. After each addition of the sterol to the diet, the bottle was rolled and shaken thoroughly. The resulting 0.1% diet with respect to the 5α-cholest-8(14)-en-3β-ol-15-one was stored at 4° C. Prior to use in feeding, the diet was allowed to warm to room temperature (~25° C.).
(§3) 2. Ketone group--7 rats with free access to the Cholesterol Free Test Diet containing 0.1% 5α-cholest-8(14)-en-3β-ol-15-one.
(§4) Another experiment following essentially the procedure of Example 43 was performed in which the 5α-cholest-8(14)-en-3β-ol-15-one was incorporated into the Cholesterol Free Test Diet at a concentration of 0.2%.

[2] = Body weight of mice, ketone in diet (Example 47); assay type: in vivo, mouse; conditions: 0.2% in diet; eight days; 7-week-old mice
Procedure: […] Five mice were fed the ketone at a level of 0.2% in a diet which was essentially free of animal sterols for eight days. Five control pair-fed mice were fed the same diet to which the ketone was not added. The mean plasma cholesterol concentration in the ketone group after the eight day experiment was 35.8(±3.6, standard error of mean) mg per 100 ml of plasma while the corresponding value for the pair-fed group was 114.4 (±3.4, standard error of mean). It should be noted that very closely matched pairfeeding is difficult to perform in mice of this age due to the small amounts of food which are consumed and which must be accurately determined in such experiments.

serum cholesterol = assay: Serum cholesterol concentration in rats, sterol in Cholesterol Free Test Diet (Examples 43, 46); assay type: in vivo, rat (male, Sprague-Dawley)
From the text: as §1
Blood samples were taken from the tail vein between 8:15 A.M. and 9:30 A.M. and at no time was more than ~0.5 ml of blood removed. Serum was obtained by centrifugation of the blood using Sure-Sep Junior (General Diagnostics, Division of Warner Lambert Company, Morris Plains, New Jersey) for 20 min at 2000-2500 rpm in a table top centrifuge (Dynac, Clay Adams Model 0091). Serum cholesterol concentration was assayed by a modification of the Cholesterol Auto Test (Bio-Dynamics, BMC Division) as described in Bio-Dynamics/bmc Cholesterol Instruction (revised December, 1975).
as §2, §3, §4

[3] = Adverse observations in rats on 0.2% ketone diet; assay type: in vivo, rat (male, Sprague-Dawley); conditions: 0.2% in diet
Procedure: as §4

[4] = test system: sterol biosynthesis in primary cultures of mouse liver cells; assay: Inhibition of sterol synthesis from [1-14C]acetate in primary cultures of liver cells; assay type: cell-based; conditions: primary cultures of liver cells, read-out: Concentrations Required for 50% Inhibition of Sterol Synthesis
Procedure: The effect of various 15-oxygenated sterols on sterol biosynthesis in L cells and in primary cultures of mouse liver cells was tested essentially under conditions described in detail previously [A. A. Kandutsch and H. W. Chen, J. Biol. Chem., Vol. 248, pp. 8408-8417 (1973) and A. A. Kandutsch and H. W. Chen, J. Biol. Chem., Vol. 249, pp. 6057-6061 (1974`)].
The primary liver cell cultures were prepared from 16-day-old (C57BL/6J fetuses and grown in chemically defined medium (serum-free) as described in the above cited publications. The L cells, a subline of NCTC clone 929 mouse fibroblasts, were grown in chemically defined medium (serum-free) as described in the publications. These L cells are transformed fibroblasts which are regarded as malignant since they will grow as tumors if injected into the mouse strain from which they were initially obtained.
The preparation of steroid-containing media, procedures for assays of the conversion of [1-^14 C]acetate into digitonin-precipitable sterols, fatty acids, and CO2 and methods for the measurement of DNA, protein, and HMG-CoA reductase were as described in the published articles. L cell cultures were preincubated with the 15-oxygenated sterols and their derivatives for 4 hours, then [1-^14 C]acetate was added at a concentration of 4 μmoles per ml (4 μCi per ml); or the L cell cultures were incubated for 5 hours with the 15-oxygenated sterols before they were harvested for determination of microsomal HMG-CoA reductase activity.
Conditions for incubating the 15-oxygenated sterols or their derivatives with liver cell cultures were similar to those described for L cell cultures except that the cultures were incubated with the test compounds for 12 hours before labeled acetate was added or before they were harvested for enzyme assay.
The test compounds were tested over a range of at least 4 concentrations and the assay was repeated until the concentration of test compound required to produce 50% inhibition was located on the steeply declining portion of an activity vs. concentration plot. To diminish any possible effects of generalized differences in cellular metabolism, the rates of sterol synthesis from [1-^14 C]acetate were calculated as the ratio of [^14 C]sterols to [^14 C]fatty acids as described in the two cited articles by Kandutsch and Chen.

[5] = 0.1% in diet, day 4, listed as Ketone
[6] = 0.1% in diet, day 8, listed as Ketone

## CC(C)CCC[C@@H](C)[C@H]1CC(=O)C2=C3CC[C@H]4C[C@@H](O)CC[C@]4(C)[C@H]3CC[C@@]21C [5α-Cholest-8(14)-en-3β-ol-15-one, 5α-cholest-8(14)-en-3β-ol-15-one]
[1]; 0.1% in diet
  food consumption relative to ad libidum group (in words): significantly less than that of the rats in the ad libidum group
[1]; 0.1% in diet, day 0
  Food consumption: 10.4 ± 0.7 g
[1]; 0.1% in diet, day 1
  Food consumption: 5.1 ± 0.3 g
[1]; 0.1% in diet, day 2
  Food consumption: 7.1 ± 0.3 g
[1]; 0.1% in diet, day 3
  Food consumption: 5.5 ± 0.3 g
[1]; 0.1% in diet, day 4
  Food consumption: 7.1 ± 0.5 g
[1]; 0.1% in diet, day 5
  Food consumption: 5.8 ± 0.5 g
[1]; 0.1% in diet, day 6
  Food consumption: 6.6 ± 0.5 g
[1]; 0.1% in diet, day 7
  Food consumption: 7.5 ± 0.5 g
[1]; 0.2% in diet
  food consumption relative to ad libidum group (in words): significantly less than that of the rats in the ad libidum group
[1]; 0.2% in diet, day 0
  Daily food consumption: 7.2 ± 0.6 g
[1]; 0.2% in diet, day 1
  Daily food consumption: 4.4 ± 1.1 g
[1]; 0.2% in diet, day 2
  Daily food consumption: 4.8 ± 0.4 g
[1]; 0.2% in diet, day 3
  Daily food consumption: 4.8 ± 0.2 g
[1]; 0.2% in diet, day 4
  Daily food consumption: 5.5 ± 0.4 g
[1]; 0.2% in diet, day 5
  Daily food consumption: 5.5 ± 0.3 g
[1]; 0.2% in diet, day 6
  Daily food consumption: 5.4 ± 0.2 g
[1]; 0.2% in diet, day 7
  Daily food consumption: 5.1 ± 0.2 g
[1]; 0.2% in diet, day 8
  Daily food consumption: 4.3 ± 0.6 g
[2]
  average decrease in body weight (standard error of mean): 5.9 g
Serum cholesterol; 0.1% in diet
  effect on serum cholesterol concentrations (in words): marked effect in lowering the serum cholesterol concentrations
Serum cholesterol; 0.1% in diet, day 0
  Serum cholesterol concentration: 71.2 ± 0.9 mg per 100 ml
Serum cholesterol; 0.1% in diet, day 4
  Serum cholesterol concentration: 50.1 mg per 100 ml
Serum cholesterol; [5]
  Serum cholesterol concentration: 50.1 ± 2.3 mg per 100 ml
  Serum cholesterol concentration, percentage of initial levels in individual rats: 70.5 ± 3.6%
Serum cholesterol; 0.1% in diet, day 4, listed as ketone
  Serum cholesterol concentration, percentage of initial levels in individual rats: 70.5%
Serum cholesterol; 0.1% in diet, day 8
  Serum cholesterol concentration: 36.9 mg per 100 ml
Serum cholesterol; [6]
  Serum cholesterol concentration: 36.9 ± 3.3 mg per 100 ml
  Serum cholesterol concentration, percentage of initial levels in individual rats: 51.8 ± 4.4%
Serum cholesterol; 0.1% in diet, day 8, listed as ketone
  Serum cholesterol concentration, percentage of initial levels in individual rats: 51.8%
Serum cholesterol; 0.2% in diet
  effect on serum cholesterol concentration (in words): marked effect on the serum cholesterol concentration
Serum cholesterol; 0.2% in diet, day 0
  Serum cholesterol concentration: 80.5 ± 2.8 mg per 100 ml
Serum cholesterol; 0.2% in diet, day 4
  Serum cholesterol concentration: 73.2 mg per 100 ml
  Serum cholesterol levels, percentage of initial levels in individual rats: 91.6 ± 4.3%
Serum cholesterol; 0.2% in diet, day 4, listed as Ketone
  Serum cholesterol concentration: 73.2 ± 3.0 mg per 100 ml
Serum cholesterol; 0.2% in diet, day 7
  Serum cholesterol concentration: 32.2 mg per 100 ml
  Serum cholesterol levels, percentage of initial levels in individual rats: 40.6 ± 7.9%
Serum cholesterol; 0.2% in diet, day 7, listed as Ketone
  Serum cholesterol concentration: 32.2 ± 5.9 mg per 100 ml
Serum cholesterol; 0.2% in diet, day 9
  Serum cholesterol concentration: 30.3 mg per 100 ml
  Serum cholesterol levels, percentage of initial levels in individual rats: 37.9 ± 8.8%
Serum cholesterol; 0.2% in diet, day 9, listed as Ketone
  Serum cholesterol concentration: 30.3 ± 6.2 mg per 100 ml
[3]; day 8
  diarrhea: 4 of the rats in the ketone group were developing diarrhea
[3]; day 9
  death: One of these rats died the following day
  loose stools: Two other rats in this group showed loose stools on day 9
[4]
  pIC50: 5.40
